The values that follow come from patent US4778797A, “Organo-silicon compounds, process for the manufacture of same, and anti-tumor agent comprising the compound” (Sanwa Kagaku Kenkyusho Co., Ltd., priority 1984, dated 1988).

SMILES strings stand for the structures. Converted amounts (≈) assume the structure as drawn. Like-named read-outs stand apart in the source and are kept apart here. Where only a bound is given, the exact number is not on record here.

Data set [1] deals with MM-46 adenocarcinoma. Kind of data set: Anti-tumor action to MM-46 adenocarcinoma. It is filed as in vivo, C3H/He female mice. The conditions noted are these: oral, 250 mg/kg/day × 3 (1st, 5th, 9th day); days to death, testing vs control group. From the text: MM-46 adenocarcinoma (1×10^6 cells) was transplanted under skin of C3H/He female mice (age of about 5 weeks), and each of testing compounds was orally dosed at 1st, 5th and 9th day after the transplantation to check days of life on the mice.
T: days to death on testing group, and
C: days to death on control group.

In data set [2] the test system is Lewis lung carcinoma. Kind of data set: Anti-tumor action to Lewis lung carcinoma (primary tumor weight and metastasis). The class given is in vivo, BDF1 mice. The conditions noted are these: Mus musculus, po, 504 h. From the text:
Lewis lung carcinoma (1×10^5 cells) was transplanted under skin of right ear of BDF1 mice (age of about 5 weeks), and each of testing compounds was orally dosed 10 times from 1st to 10th day after the transplantation. At 21st day after the transplantation, the mice were killed to measure a weight of the primarly tumor and to extract a lung. The lung was fixed in a conventional manner to count a number of metastasis on cancerous cells with use of a stereomicroscope having a low magnification. An anti-tumor action of each compound was expressed with an inhibition in weight of the primarly tumor and an inhibition of the metastasis.

Data set [3] concerns B-16 melanoma. Kind of data set: Anti-tumor action to B-16 melanoma. The class given is in vivo, BDF1 female mice. The following applies: Mus musculus, B16, 504 h, oral, tumor weight at 21st day, read-out: B-16 melanoma Inhibition ratio. From the text:
B-16 melanoma (1×10^5 cells) was transplanted under skin of BDF1 female mice (age of about 5 weeks), and each of testing compounds was orally dosed at 1st, 5th and 9th day after the transplantation. At 21st day after the transplantation, the mice were killed to measure a weight of the cancerous tumor and to finally determine an inhibition ratio.

Data set [4] concerns KB cells. Kind of data set: Suppression of KB cell proliferation in vitro. It is filed as cell-based. The conditions noted are these: Homo sapiens, 72 h, 3 days exposure, Trypan Blue dye-exclusion, read-out: KB IC50 (50% inhibition density to tumor cell proliferation). Here is the method: In a cultivation device (5% CO2, 37° C.), KB cells (1×10^4 cells) were cultivated for 24 hours in a culture tube with 1 ml of Eagle culture medium added 10% ox serum, the used culture medium was thrown away to change with a fresh culture medium (0.9 ml), and then 0.1 ml of a similar culture fluid containing each testing compound prepared by the process as described in the Examples was added to cultivate the same for further 3 days. Thereafter, living cells were dyed with Tripan Blue and measured same through a dye-exclusion method.
A control was treated in a manner similar to the above, except that a culture fluid containing no compound of the invention was added.
50% inhibition density (IC50) to the tumor cell proliferation was decided through the tests between the testing group and the control group to obtain results as shown in following Table 1.

The nature of data set [5]: Acute toxicity. It is filed as in vivo, CrJ/CDI female mice. The conditions noted are these: mouse, in vivo; oral gavage, suspended in 0.1% P-1570, female mice, 21 days observation. The protocol: (§1) Each of testing compounds suspended in 0.1% P-1570 was orally and forcedly dosed through a gastric probe to CrJ/CDI female mice (21 to 22 g, age of about 5 weeks). An identification number was given to each mouse, and a weighing and observation on general behavior were carried out just before the dosage and each day after the same. Each of died mice was subjected without delay to an autopsy to check the same, more particularly in detail on enterona. All of living mice were killed at 21st day from the dosage to carry out an autopsy for checking the same, more particularly on entrails.
(§2) An LD50 was calculated in accordance with the Leed and Munch's method.
(§3) A similar test was carried out on each controls of 1-[2-[(2-trimethylsilylethyl)thio]ethylcarbamoyl]-5-fluorouracil and 1-hexylcarbamoyl-5-fluorouracil (HCFU) which is one of exemplary anti-tumor agents.

Data set [6] has as its system L-1210 leukemia. Kind of data set: Anti-tumor action to L-1210 leukemia. The class given is in vivo, BDF1 female mice. The conditions noted are these: Mus musculus, L1210, oral; for ILS at 250 mg/kg/day: 250 mg/kg/day × 3 (1st, 5th, 9th day); for ILS at 500 mg/kg/day: 500 mg/kg/day × 3 (1st, 5th, 9th day). Here is the method: L-1210 leukemia cell (1×10^5 cells) was transplanted in a abdominal cavity of BDF1 female mice (20-21 g, age of about 5 weeks), and each of testing compounds was orally dosed in 250 mg/kg or 500 mg/kg at 1st, 5th and 9th day after the transplantation to check days of life of the mice. [formula]

Data set [7] deals with Colon-38 carcinoma. Kind of data set: Anti-tumor action to Colon-38 carcinoma. It is filed as in vivo, BDF1 mice. The conditions noted are these: Mus musculus, 672 h, oral, tumor weight at 28th day, read-out: colon-38 Inhibition ratio. In short, it runs like this: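 BDF1 mice (20-21 g, ~5 weeks) implanted subcutaneously with Colon-38 cell suspension; compounds given orally on days 1, 5 and 9 post-transplant. Tumour volume from major/minor axes on days 11–28; on day 28 tumours excised and weighed, inhibition ratio versus untreated controls.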

In data set [8] the test system is CrJ/CDI female mice. Kind of data set: Acute toxicity. It is filed as in vivo. The conditions noted are these: oral gavage. The protocol: as §1, §2, §3

Broadly, the LD50 is the dose expected to kill half of the subjects tested. A higher LD50 goes with lower toxicity. In the case of `C[Si](C)(CCSCCNC(=O)n1cc(F)c(=O)[nH]c1=O)c1ccccc1` [Example 3, N-[2-[[2-(Dimethylphenylsilyl)ethyl]thio]ethyl]-5-fluoro-3,4-dihydro-2,4-dioxo-1(2H)-pyrimidinecarboxamide], the “MM-46 adenocarcinoma T/C × 100” value in data set [1] was determined as 205%. The inhibition in vivo at 29.5 mg/kg/day in data set [2] (29.5 mg/kg/day × 10, 21st day, read-out: Inhibition Ratio weight LLC) worked out at 20.7%; in data set [2] (29.5 mg/kg/day × 10, lung, 21st day, read-out: Inhibition Ratio metastasis), 57.5%. The inhibition in vivo at 59 mg/kg/day in data set [2] (59 mg/kg/day × 10, 21st day, read-out: Inhibition Ratio weight LLC) is 0%; in data set [2] (59 mg/kg/day × 10, lung, 21st day, read-out: Inhibition Ratio metastasis), 95.1%. Moreover, the inhibition in vivo at 300 mg/kg/day in data set [3] (300 mg/kg/day × 3) is 62%. Further, the IC50 in data set [4] worked out at 12 µg/mL (≈ 30.3 µM). For the same compound, the LD50 at 504 h in data set [5] was found to be 1500 mg/kg. Also, the ILS at 250 mg/kg/day was 38% in data set [6] (read-out: L-1210 ILS) and 25 to 50% in data set [6] (read-out: L-1210 Judgement). Moreover, the ILS at 500 mg/kg/day in data set [6] (read-out: L-1210 ILS) is 82%; in data set [6] (read-out: L-1210 Judgement) it was 50 to 100%. The inhibition in vivo at 315 mg/kg/day in data set [7] (315 mg/kg/day × 3) turned out to be 82.1%.
For `C[Si](C)(C)CCCSCCNC(=O)n1cc(F)c(=O)[nH]c1=O` [Example 1, 5-Fluoro-3,4-dihydro-2,4-dioxo-N-[2-[[3-(trimethylsilyl)propyl]thio]ethyl]-1(2H)-pyrimidinecarboxamide], in data set [1], the “MM-46 adenocarcinoma T/C × 100” value is listed as 181%. Moreover, the inhibition in vivo at 13 mg/kg/day amounted to 33.2% in data set [2] (13 mg/kg/day × 10 + Amputation, 21st day, read-out: Inhibition Ratio weight LLC); 26.6% in data set [2] (13 mg/kg/day × 10 + Amputation, lung, 21st day, printed in parentheses, read-out: Inhibition Ratio metastasis); 0% in data set [2] (13 mg/kg/day × 10, 21st day, read-out: Inhibition Ratio weight LLC); 50.9% in data set [2] (13 mg/kg/day × 10, lung, 21st day, read-out: Inhibition Ratio metastasis). The inhibition in vivo at 26 mg/kg/day in data set [2] (26 mg/kg/day × 10 + Amputation, 21st day, read-out: Inhibition Ratio weight LLC) is 59.8%; in data set [2] (26 mg/kg/day × 10 + Amputation, lung, 21st day, printed in parentheses, read-out: Inhibition Ratio metastasis), more than 63%; in data set [2] (26 mg/kg/day × 10, 21st day, read-out: Inhibition Ratio weight LLC), 51.1%; in data set [2] (26 mg/kg/day × 10, lung, 21st day, read-out: Inhibition Ratio metastasis), 79.2%. Besides, the inhibition in vivo at 52 mg/kg/day in data set [2] (52 mg/kg/day × 10, 21st day, read-out: Inhibition Ratio weight LLC) is 31.1%; in data set [2] (52 mg/kg/day × 10, lung, 21st day, read-out: Inhibition Ratio metastasis) it was 95.7%. Further, the inhibition in vivo at 125 mg/kg/day in data set [3] (125 mg/kg/day × 3) came out at 25.8%. In data set [3] (250 mg/kg/day × 3), the inhibition in vivo at 250 mg/kg/day turned out to be 73.8%. In data set [4], the IC50 turned out to be 20 µg/mL (≈ 57.6 µM). The LD50 at 504 h in data set [5] worked out at 1580 mg/kg. For the same compound, the ILS at 250 mg/kg/day in data set [6] (read-out: L-1210 ILS) is 28%; in data set [6] (read-out: L-1210 Judgement), 25 to 50%. Besides, the results for the ILS at 500 mg/kg/day in data set [6] (read-out: L-1210 ILS) and in data set [6] (read-out: L-1210 Judgement) were 98% and 50 to 100%, respectively. Also, the inhibition in vivo at 278 mg/kg/day in data set [7] (278 mg/kg/day × 3) was determined as 95.2%.
As to `C[Si](C)(C)CCSCCNC(=O)n1cc(F)c(=O)[nH]c1=O` [1-[2-[(2-trimethylsilylethyl)thio]ethylcarbamoyl]-5-fluorouracil, reference compound], in data set [5], the LD50 at 504 h stood at 1100 mg/kg. Moreover, in data set [8] (female mice), the “autopsy findings (ulcer and laxative feces)” value is “an ulcer and laxative feces”; the “spasm (general behavior)” value is reported as “a spasm was observed in some mice”.
On to `CCCCCCNC(=O)n1cc(F)c(=O)[nH]c1=O` [HCFU, 1-hexylcarbamoyl-5-fluorouracil, reference compound], for which the 50% lethal dose (LD50) in data set [8] (suspended in 0.1% P-1570, female mice, 21 days observation) was 1250 mg/kg.
